The record followed here is patent US9326972B2, “Use of phenylmethimazoles, methimazole derivatives, and tautomeric cyclic thiones for the treatment of autoimmune/inflammatory diseases associated with toll-like receptor overexpression” (Ohio University, priority 2004, dated 2016).

Structures are written as SMILES.

The subject of one test is Stat1. The test can be described thus: Stat1 phosphorylation in Influenza A infected FRTL-5 thyrocytes (Western blot). The class given is cell-based, rat. On the procedure: FIG. 6. Phenylmethimazole (C10) has no effect on the ability of Poly (I:C) or LPS to increase formation of the p50/p65 heterodimer complex of […] (A), but can inhibit the Influenza A induced activation of Stat1 phosphorylation in FRTL-5 thyrocytes (B). In (A), EMSA were performed using nuclear extracts from cells which were treated with nothing (none), Poly (I:C) (100 μg/ml), LPS (100 ng/ml), in the presence of DMSO, C10, or MMI for 6 hours. Probe was the NF-κβ consensus oligonucleotide. The p65/p50 and p50/p50 complexes are indicated and were identified as in FIG. 2B by antibody inhibition or supershifts of the p50 or p65 components of the induced complexes. In (B), cells were infected with Influenza A for 24 hours and then DMSO or C10 were added to the medium for 6 hours. In each, 25 μg of nuclear extracts were used in Western blots performed to detect Stat1 PY701. Blots were then stripped and reprobed for unphosphorylated Stat1. The first lane is a non infected control (−).
Immunoprecipitation and Western Blot Analysis. Whole cell lysates were prepared in lysis buffer (10 mM Tris-HCl (pH 7.5), 150 mM NaCl, 1% NP-40) containing protease inhibitors. Nuclear extracts were prepared using the NE-PER extraction reagents with protease inhibitors stated below (Pierce Chemical Co., Rockford, Ill.). […]
For orientation: Immunoblotting shows a protein as a band on a membrane.

The test system of the next test is TLR3. Briefly: TLR3 mRNA in NPA human thyrocytes (Northern). Particulars: 0.5 mM C10. The class given is cell-based. On the procedure: In order to confirm the presence and functionality of TLR3 in human thyrocytes, we evaluated TLR3 expression in cultured NPA human thyrocytes. NPA thyrocytes are from a papillary carcinoma but are known to retain functional properties of normal thyrocytes. Transfection with dsRNA [Poly (I:C)], but not transfection by dsDNA or incubation with Poly (I:C), was able to increase TLR3 mRNA levels in Northern blots. The dsRNA, but not the dsDNA transfection, could also increase IFN-β mRNA levels, measured as before with PCR. Additionally, as was the case for FRTL-5 cells and dsRNA transfection, IFN-β increased PKR mRNA levels as well as TLR3 RNA levels.
NPA-87 cells are a continuous line of human thyrocytes derived from papillary carcinoma cells. They retain several functional responses including TSH-increased cAMP signaling (J. Xu, et al., J Clin Endocrinol Metab, 88:4990-6 (2003)). They were kindly provided by Dr. Guy Julliard (University of California, Los Angeles, Calif.) and grown in RPMI 1640 medium supplemented with 2 g/liter sodium bicarbonate, 0.14 mM nonessential amino acids, 1.4 mM sodium pyruvate, and 10% fetal bovine serum, pH 7.2.
RNA Isolation and Northern Analysis.

Turning to `Cn1c(-c2ccccc2)cnc1S` [Compound C10, 5-Phenylmethimazole], the “virus- or IFN-β-stimulated Stat1 phosphorylation (PY701)” value in the test with Stat1 (FRTL-5, Influenza A 24 hours then C10 6 hours) is “profound inhibitor”. For the same compound, the “Stat1 serine phosphorylation at residue 727” value with Stat1 (FRTL-5, Influenza A virus 24 hours, 1 mM C10) is given as “reduce”. Further, in the test with TLR3, the “dsRNA transfection- or IFN-β-increased TLR3 mRNA levels” value is recorded as “decreased”.
